Test results taken from paper PMC3131604, “The Inhibitory Effect of Non-Steroidal Anti-Inflammatory Drugs (NSAIDs) on the Monophenolase and Diphenolase Activities of Mushroom Tyrosinase” (International Journal of Molecular Sciences, 2011).
Where two headings read alike, the source gives them in different places.

Tests used:
B16F1 melanoma cells = details: cited from earlier work
mushroom tyrosinase [1] = biological target: T1, mushroom tyrosinase (Agaricus bisporus, UniProt C7FF04); assay: diphenolase activity assay of mushroom tyrosinase (L-DOPA as substrate); assay type: biochemical; details: for KIS, diphenolase: Lineweaver-Burk / secondary plots; for Inhibition type, diphenolase activity: Lineweaver-Burk plots; for activity at 50 µM: at 0.05 mM; for activity at 50 µM / activity at 100 µM / activity at 200 µM / activity at 500 µM / activity at 1000 µM: read-out: diphenolase activity in presence of inhibitor; for activity at 100 µM: at 0.1 mM; for activity at 500 µM: at 0.5 mM; for activity at 1000 µM: at 1.0 mM
Protocol: The diphenolase activity assay was performed as previously described. First, 300 μL of 2.5 mM 3,4-dihydroxyphenylalanine (L-DOPA) solution, 50 μL of DMSO with or without a sample chemical, and 1.1 mL of 0.1 M phosphate buffer (pH 6.8) were mixed. The mixture was preincubated at 25 °C for 10 min before 50 μL of 1000 units/mL mushroom tyrosinase in aqueous solution was added, and the reaction was monitored at 475 nm. A control reaction was conducted in DMSO alone. The percentage of activity of tyrosinase was calculated as follows: 100 − [(A − B)/A × 100], where A represents the difference in the absorbance of the control sample between an incubation time of 0.5 and 1.0 min, and B represents the difference in the absorbance of the test sample over the same incubation period.
(§1) The inhibition type of NSAIDs on the monophenolase and diphenolase activity was determined by the Lineweaver-Burk plots and the inhibition constants were determined from secondary plots of the apparent Km/Vmax versus the concentration of the inhibitor.

mushroom tyrosinase [2] = biological target: T1, mushroom tyrosinase; assay: monophenolase activity assay of mushroom tyrosinase (L-tyrosine as substrate); assay type: biochemical; details: for effect on lag time of monophenolase activity: 0.25-1.0 mM inhibitor; for Inhibition type, monophenolase activity: Lineweaver-Burk plots; for activity at 250 µM: at 0.25 mM; for activity at 250 µM / activity at 500 µM / activity at 750 µM / activity at 1000 µM: read-out: monophenolase activity (steady-state rate) in presence of inhibitor; for activity at 500 µM: at 0.5 mM; for activity at 750 µM: at 0.75 mM; for activity at 1000 µM: at 1.0 mM; for KIS (inhibitor binding with the enzyme-substrate complex), monophenolase: secondary plot of Lineweaver-Burk slopes
Protocol: The monophenolase activity assay was performed with modification as reported by Chen et al.. In this assay, L-tyrosine was used as substrate in the monophenolase activity assay. First, 300 μL of 2.5 mM L-tyrosine, 25 μL of DMSO with or without a sample chemical, and 300 μL of 0.1 M phosphate buffer (pH 6.8) were mixed. The mixture was preincubated at 37 °C for 10 min before 125 μL of 1000 units/mL mushroom tyrosinase in aqueous solution added, and the reaction was performed at 37 °C. Enzyme activity was monitored at 475 nm by a UV spectrophotometer (Shimadzu, UV-1700). The lag time was determined by extrapolation of the linear portion of the dopachrome accumulation curve to the abscissa axis.
as §1

T1 sequence (C7FF04 1-392): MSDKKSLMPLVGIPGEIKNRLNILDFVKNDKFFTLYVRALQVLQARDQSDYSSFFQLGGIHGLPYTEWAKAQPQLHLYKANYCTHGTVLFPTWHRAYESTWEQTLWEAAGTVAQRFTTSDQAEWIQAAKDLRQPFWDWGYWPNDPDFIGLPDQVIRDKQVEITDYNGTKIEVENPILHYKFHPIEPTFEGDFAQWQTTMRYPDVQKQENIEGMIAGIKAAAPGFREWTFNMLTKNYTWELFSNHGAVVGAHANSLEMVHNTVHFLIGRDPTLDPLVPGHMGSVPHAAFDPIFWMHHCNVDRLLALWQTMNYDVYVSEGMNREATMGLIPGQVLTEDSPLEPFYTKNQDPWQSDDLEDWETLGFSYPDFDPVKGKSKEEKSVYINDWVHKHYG
T1 sequence (G1K3P4 1-150 partner): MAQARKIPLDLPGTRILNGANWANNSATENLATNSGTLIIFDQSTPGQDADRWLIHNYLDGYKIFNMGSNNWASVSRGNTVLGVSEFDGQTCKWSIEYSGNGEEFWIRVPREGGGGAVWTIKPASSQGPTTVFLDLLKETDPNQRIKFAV

CC(=O)Oc1ccccc1C(=O)O [Acetylsalicylic acid, acetylsalicylic acid]
effect on melanogenesis (B16F1 melanoma cells; B16F1 melanoma cells ref 23): inhibits melanogenesis | effect on tyrosinase protein expression (B16F1 melanoma cells; B16F1 melanoma cells ref 23): down-regulates | inhibition of diphenolase activity (in words) (mushroom tyrosinase [1]; L-DOPA substrate): did not inhibit | inhibition at 4000 µM (mushroom tyrosinase [1]; at 4 mM): -6%

O=C(O)Cc1ccccc1Nc1c(Cl)cccc1Cl [Diclofenac, diclofenac]
effect on melanogenesis (B16F1 melanoma cells): inhibit melanogenesis | inhibition at 4000 µM (mushroom tyrosinase [2]; at 4 mM): 25%

O=C(O)c1cc(-c2ccc(F)cc2F)ccc1O [Diflunisal, diflunisal]
KIS, diphenolase (mushroom tyrosinase [1]): 0.19 mM | Inhibition type, diphenolase activity (mushroom tyrosinase [1]): Non-competitive | activity at 50 µM (mushroom tyrosinase [1]): ~77% | activity at 100 µM (mushroom tyrosinase [1]): ~63% | activity at 200 µM (mushroom tyrosinase [1]; at 0.2 mM): ~49% | activity at 500 µM (mushroom tyrosinase [1]): ~32% | activity at 1000 µM (mushroom tyrosinase [1]): ~20% | effect on lag time of monophenolase activity (mushroom tyrosinase [2]): extended | Inhibition type, monophenolase activity (mushroom tyrosinase [2]): Non-competitive | activity at 250 µM (mushroom tyrosinase [2]): ~45% | activity at 500 µM (mushroom tyrosinase [2]): ~34% | activity at 750 µM (mushroom tyrosinase [2]): ~27% | activity at 1000 µM (mushroom tyrosinase [2]): ~20% | KIS (inhibitor binding with the enzyme-substrate complex), monophenolase (mushroom tyrosinase [2]): 0.11 mM

CC(C)Cc1ccc(C(C)C(=O)O)cc1 (stereo not shown) [Ibuprofen, ibuprofen]
inhibition of diphenolase activity (in words) (mushroom tyrosinase [1]; L-DOPA substrate): did not inhibit | inhibition at 1000 µM (mushroom tyrosinase [1]; at 1 mM): 8%

COc1ccc2c(c1)c(CC(=O)O)c(C)n2C(=O)c1ccc(Cl)cc1 [Indomethacin, indomethacin]
KIS, diphenolase (mushroom tyrosinase [1]): 2.42 mM | Inhibition type, diphenolase activity (mushroom tyrosinase [1]): Non-competitive | activity at 50 µM (mushroom tyrosinase [1]): ~89% | activity at 100 µM (mushroom tyrosinase [1]): ~82% | activity at 200 µM (mushroom tyrosinase [1]; at 0.2 mM): ~70% | activity at 500 µM (mushroom tyrosinase [1]): ~50% | activity at 1000 µM (mushroom tyrosinase [1]): ~32% | effect on lag time of monophenolase activity (mushroom tyrosinase [2]): did not change | Inhibition type, monophenolase activity (mushroom tyrosinase [2]): Non-competitive | activity at 250 µM (mushroom tyrosinase [2]): ~84% | activity at 500 µM (mushroom tyrosinase [2]): ~72% | activity at 750 µM (mushroom tyrosinase [2]): ~66% | activity at 1000 µM (mushroom tyrosinase [2]): ~60% | IC50 of monophenolase activity relative to diphenolase activity (mushroom tyrosinase [2]; ratio of IC50 values): about three times larger | KIS (inhibitor binding with the enzyme-substrate complex), monophenolase (mushroom tyrosinase [2]): 0.75 mM

Cc1cccc(Nc2ccccc2C(=O)O)c1C [Mefenamic acid, mefenamic acid]
effect on melanogenesis (B16F1 melanoma cells): inhibit melanogenesis | inhibition of diphenolase activity (in words) (mushroom tyrosinase [1]; at 0.2 mM): slightly inhibited | inhibition at 1000 µM (mushroom tyrosinase [2]; at 1 mM): 9%
